Where two headings read alike, the source gives them in different places. Marks after values point to notes of the source that are not given here.
Key:
[1] = test system: human gastric cancer cells-803 (MGC-803); test: MTT antiproliferative assay, MGC-803; format: cell-based; settings: read-out: Effect against cell viability (IC50), MGC-803
Experimental: (§1) All newly synthesized acridinyl derivatives (4–6) were screened for their anticancer activities in comparison to the reference compounds, 5-FU and cis-platinum. Compounds 4–6 were tested for their in vitro antitumor activities against HFF, MGC-803, BEL-7404, NCI-H460, and T24 tumor cell lines, and human normal liver cells (LO2), and the results are shown in Table 1. Most of the compounds had strong selective potency against MGC-803 and T24 cancer cells. […] In the T24 cell line assay, many compounds, especially the series of compound 4, had significant activity against T24. This implies that there is a significant increase in potency after the introduction of the aroyl thiourea group. […] To our delight, most 1,2,4-triazolethiones (5) and 1,2,4-thiadiazoles (6) have low toxicity to LO2 compared with the positive control.
(§2) Test samples, including compounds 4–6 and commercial classical anticancer drugs (5-FU and cis-platinum), were screened for their anti-cancer activity against HFF human foreskin fibroblast cells, MGC-803 human gastric cancer cells, BEL-7404 human hepatocellular carcinoma cells, NCI-H460 human large cell carcinoma cells, and T24 human bladder carcinoma cells using the 3-(4,5-dimethylthiazol-2-yl)-2,5-diphenyltetrazoliumbromide (MTT) assay method cited in the literature. The initial concentration of all the test samples was 100 μg/mL, which was serially diluted in complete medium with ten-fold dilutions to give six concentrations per compound. Their cytotoxicity was determined in 96-well flat bottomed microtiter plates. All the test samples were tested in triplicate. The results were expressed as the drug concentration that inhibited cell growth by 50% as compared to the controls (IC50). The IC50 values were calculated from regression lines obtained from the percent cell growth inhibition plotted as a function of the logarithm of the dose.

[2] = test system: human foreskin fibroblasts (HFF); test: MTT antiproliferative assay, HFF; format: cell-based; settings: read-out: Effect against cell viability (IC50), HFF
Experimental: as §1, §2

T24 cells [3] = test: Apoptosis by Annexin V-FITC/PI flow cytometry, T24; format: cell-based, human; settings: T24, at IC50 concentration (4h 8.05 μM; 6h 8.93 μM); control 1.18%
Experimental: (§3) The apoptosis ratios of MGC80-3 or T24 cell lines induced by the selected compounds at the concentration of IC50 and 0.5 IC50 were quantitatively determined by flow cytometry. Four quadrant images (Q1, Q2, Q3 and Q4) were observed by flow cytometric analysis. The results of apoptosis ratios (including the early and late apoptosis ratios) after 12 h are presented in Figure 6 (MGC80-3) and Figure 7 (T24). […] After treatment with compound 6h, 5.62% (3.43 μM) and 14.25% (6.85 μM) of the cells were apoptotic. These were higher percentages than the one observed in the control (0.586%). […] The results evidently illustrate that representative compounds 5d and 6h or 4h and 6h could suppress cell proliferation by inducing apoptosis in the early apoptotic period.
(§4) The apoptosis assay and the cell cycle analysis were carried out by cytometry (FACSVerse, BD, Piscataway, NJ, USA) at an excitation wavelength of 488 nm according to the method described in the literature with slight modifications. The cells were seeded at 2 × 10^6/well and washed by cold PBS. The buffer solutions were prepared using 0.1 M pH 7.4 Hepes/NaOH, 1.4 M NaCl, and 25 mM CaCl2.

zebrafish embryos = test system: zebrafish embryos; design: mortality rate of zebrafish embryos: dose or concentration left out as unconfirmed; settings: for MAR (malformation rate) / MOR (mortality rate): zebrafish embryos 72 hpf
Experimental: In this experiment, 2% DMSO was used to dissolve the target products, and the abnormal rate (MAR) and mortality rate (MOR) of zebrafish embryos (72 hpf) were used for statistics.
The zebrafish embryos were collected at 6 hpf and randomly divided into naive control (embryos maintained in distilled water), vehicle control (embryos treated with 2% DMSO), and drug groups. Stock solutions of all drugs were prepared in 2% DMSO as a solubilizing agent and diluted to three concentrations (0.5 mg/mL, 1 mg/mL, and 2 mg/mL). Each group had 20 embryos per test concentration. […] Each compound was evaluated in three independent biological experiments.

[4] = test system: hepatocellular carcinoma bel-7404 (BEL-7404); test: MTT antiproliferative assay, BEL-7404; format: cell-based, human; settings: read-out: Effect against cell viability (IC50), BEL-7404
Experimental: as §1, §2

[5] = test system: bladder cancer cells (T24); test: MTT antiproliferative assay, T24; format: cell-based, human; settings: read-out: Effect against cell viability (IC50), T24
Experimental: as §1, §2

[6] = test system: subintestinal veins (SIVs) in zebrafish embryos; test: Zebrafish angiogenesis assay (subintestinal veins, NBT/BCIP staining); format: in vivo; settings: 1 mg/mL; for area of the meshed pattern vessel and number of vascular branches in the network: zebrafish embryos, compared with blank control group
Description: Currently, the zebrafish has emerged as a valuable model organism to substitute traditional models for studying angiogenesis inhibitors. The genes of zebrafish show 70–80% similarity to humans, and the vascular structure of zebrafish has high similarity to that of other vertebrates. Therefore, the subintestinal veins (SIVs) in the zebrafish embryos are used as evaluation indicators for anti-angiogenesis inhibitors. In this study, NBT/BCIP vascular staining was used to observe the angiogenesis effect of representative drugs (4h, 4f, 5d, 5h, 6g and 6h) in a zebrafish model. […] Compared with the blank control group, the area of the meshed pattern vessel and the number of vascular branches in the network decreased after the administration of compounds 4h, 5d, 5h and 6h.
The 24 hpf zebrafish embryos were dechorionated with a 1 gL^−1 pronase treatment and maintained in distilled water in 12-well cell culture plates (each well contained 20 embryos). A negative control group containing zebrafish embryos in distilled water and a vehicle treatment group that was treated with 2% dimethyl sulfoxide (DMSO) were prepared. The anti-angiogenic compounds were diluted to 1 mg/mL. After incubating at 28 °C for […], the embryos were immersed in 4% paraformaldehyde and dehydrated by gradient ethanol. Subsequently, the embryos were balanced in NTMT buffer (5 M NaCl + 1 M Tris [pH 9.0–9.5] + 1 M MgCl2+ 10% Tween), and nitrotetrazolium blue chloride (NBT) and p-toluidine salt (BCIP) staining were performed. To evaluate the effect of compounds on the angiogenesis of zebrafish embryos, the growth of embryonic sub-intestinal veins (SIVs) at 72 hpf was observed using an IX71 Olympus microscope (Hamburger, Germany). The length of the SIVs was calculated using the image J 1.8.0 software (Bethesda, MD, USA).

[7] = test system: large cell lung cancer cells (NCI-H460); test: MTT antiproliferative assay, NCI-H460; format: cell-based, human; settings: read-out: Effect against cell viability (IC50), NCI-H460
Experimental: as §1, §2

T24 cells [8] = test: Cell cycle analysis by flow cytometry, T24; format: cell-based, human; settings: T24, 8.05 μM (IC50), 48 h; control 22.89%
Experimental: (§5) Compared to control, both compounds 4h and 5d interfered with the cell cycles of T24 and MGC80-3 cells, respectively.
as §4

[9] = test system: human normal liver cells (LO2); test: Cytotoxicity against normal liver cells LO2; format: cell-based; settings: MTT, read-out: Effect against cell viability (IC50), LO2
Experimental: as §1, §2

MGC80-3 cells [10] = test: Apoptosis by Annexin V-FITC/PI flow cytometry, MGC80-3; format: cell-based, human; settings: for apoptosis percentage (early and late): control 0.586%
Experimental: as §3, with “The results of apoptosis ratios (including the early and late apoptosis ratios) after 12 h are presented in Figure 6 (MGC80-3) and Figure 7 (T24).” left out
as §4

MGC80-3 cells [11] = test: Cell cycle analysis by flow cytometry, MGC80-3; format: cell-based, human; settings: MGC80-3, 5.52 μM (IC50), 48 h; control 8.91%
Experimental: as §5, §4

COc1ccc(C(=O)NNC(=S)Nc2c3ccccc3nc3ccc(C)cc23)cc1 [4h, 1-2′-methyl acridinyl-3-4’-methoxy benzoyl thiosemicarbazides]
IC50 ([1]; MTT): 11.2 ± 1.46 µM | IC50 [2]: > 100 µM | apoptosis ratio (T24 cells [3]): 12.377% | MAR (malformation rate) (zebrafish embryos; 1 mg/mL): 35% ^a | MOR (mortality rate) (zebrafish embryos; 1 mg/mL): 15% ^a | MAR (malformation rate) (zebrafish embryos; 1.5 mg/mL): 85% ^a | MOR (mortality rate) (zebrafish embryos; 1.5 mg/mL): 15% ^a | MAR (malformation rate) (zebrafish embryos; 2 mg/mL): 35% ^a | MOR (mortality rate) (zebrafish embryos; 2 mg/mL): 65% ^a | total mortality and malformation rate (zebrafish embryos; zebrafish embryos, 2.0 mg.L^−1): 100% | IC50 [4]: 27.1 ± 2.91 µM | IC50 [5]: 8.05 ± 1.06 µM | area of the meshed pattern vessel and number of vascular branches in the network [6]: decreased | IC50 [7]: 25.4 ± 3.16 µM | S phase population (T24 cells [8]): 30.04% | IC50 [9]: 9.01 ± 0.93 µM

COc1ccc2nc3ccccc3c(-n3c(-c4ccc([N+](=O)[O-])cc4)n[nH]c3=S)c2c1 [5d, 4-(2-methoxyacridin-9-yl)-5-(4-nitrophenyl)-2,4-dihydro-3H-1,2,4-triazole-3-thione]
IC50 ([1]; Homo sapiens, MGC-803, MTT): 5.52 ± 1.04 µM | IC50 ([2]; Homo sapiens, Fibroblast): 62.9 ± 1.9 µM | apoptosis percentage (early and late) (MGC80-3 cells [10]; MGC80-3, 0.5 IC50 (5d 2.76 μM; 6h 3.43 μM)): 6.616% | Q4 (live) cells (MGC80-3 cells [10]; MGC80-3, IC50 (5d 5.52 μM; 6h 6.85 μM), 24 h, control 93.0%): 81.2% | apoptosis percentage (early and late) (MGC80-3 cells [10]; MGC80-3, IC50 (5d 5.52 μM; 6h 6.85 μM)): 17.51% | mortality rate of zebrafish embryos (zebrafish embryos): ~0% | malformation rate of zebrafish embryos (zebrafish embryos; 2.0 mg.L^−1): less than 15% | MAR (malformation rate) (zebrafish embryos; 1 mg/mL): 5% ^b | MOR (mortality rate) (zebrafish embryos; 1 mg/mL): 0% | MAR (malformation rate) (zebrafish embryos; 1.5 mg/mL): 10% ^a | MOR (mortality rate) (zebrafish embryos; 1.5 mg/mL): 0% | MAR (malformation rate) (zebrafish embryos; 2 mg/mL): 10% ^c | MOR (mortality rate) (zebrafish embryos; 2 mg/mL): 0% | IC50 ([4]; Homo sapiens): 25.1 ± 2.89 µM | IC50 ([5]; Homo sapiens): 15.9 ± 1.38 µM | reduction in the vessel length (SIVs) compared to the mean vessel length for the controls ([6]; 72 hpf zebrafish embryos): ~50% | area of the meshed pattern vessel and number of vascular branches in the network [6]: decreased | G2 phase population (MGC80-3 cells [11]): 13.32% | IC50 ([7]; Homo sapiens): 19.4 ± 1.58 µM | IC50 ([9]; Homo sapiens): 51.8 ± 3.46 µM
